Results reported in patent publication US4880820A, “Guanine derivatives” (Merck & Co., Inc., priority 1988, dated 1989).
In brackets after ≈: the same amount, converted by molar mass.

How the values were obtained:
[1] = tested on: Herpes simplex virus Type 2 (Curtis); assay: Method 1: inhibition of viral induced cytopathology in primary rabbit kidney cell cultures, HSV-2; assay type: cell-based; details: Human alphaherpesvirus 2; HSV-2 (Curtis), primary rabbit kidney cells; total suppression of cytopathology in 50% of cultures; read-out: Minimum Effective Concentration
Protocol: (§1) Method 1: Confluent monolayers of primary rabbit kidney cell cultures were refed with maintenance medium containing serial dilutions of the test compounds and incubated overnight at 37° C. At each dilution, four cultures were challenged with approximately 10 TCID50 HSV-1, four cultures were challenged with approximately 10 TCID50 HSV-2,and two cultures were left as toxicity controls. Cultures were reincubated at 37° C. and observed for viral induced cytopathology at days 5 and 7. Minimum Effective Concentration (μg/ml) is defined as the concentration of antiviral compound required to totally suppress the development of viral cytopathology in 50% of the infected rabbit kidney cell cultures.

[2] = tested on: Herpes simplex virus Type 1 (Schooler); assay: Method 1: inhibition of viral induced cytopathology in primary rabbit kidney cell cultures, HSV-1; assay type: cell-based; details: Human alphaherpesvirus 1; HSV-1 (Schooler), primary rabbit kidney cells; total suppression of cytopathology in 50% of cultures; read-out: Minimum Effective Concentration
Protocol: as §1

[3] = tested on: Herpes simplex virus Type 1 (Schooler); assay: Method 2: virus plaque reduction in MRC-5 cells, HSV-1; assay type: cell-based; details: Human alphaherpesvirus 1, MRC5, 72 h; HSV-1 (Schooler), MRC-5 cells, 3 days; 50% reduction of plaque development; read-out: ED50 (the source's name)
Protocol: Method 2: Confluent monolayers of MRC-5 cells were incubated for one hour at 37° C. with 50-100 plaque forming units of the indicated virus. Following incubation, the cell monolayers were refed with maintenance medium containing 2% methyl cellulose and the chemical agent indicated. Duplicate cultures were incubated with each concentration of the chemical agent tested. Following further incubation for 3 days at 37° C., the monolayers were stained and the developed virus plaques were counted. The concentration (μg/ml) of each chemical agent which reduced plaque development by 50% (ED50) was determined.

[4] = tested on: Herpes simplex virus type 1 (HSV-1), strain Schooler; assay: Oral treatment of intraperitoneal HSV-1 infection of mice (Example 16); assay type: in vivo, ICR/Ha mice
Protocol: (§2) Twenty gram ICR/Ha mice were injected intraperitoneally (i.p.) with 0.5 ml of a 10^-5 dilution of a stock preparation of Herpes simplex virus type 1 (HSV-1), strain Schooler. This virus challenge infected each animal with approximately 50 to 100 LD50 s. Starting immediately after virus infection and continuing twice daily for 7 days, each animal was treated by oral gavage in groups of 10 with: 250 μg, 125 μg, 8 μg or 2 μg of (S)-9-(2,3-dihydroxy-1-propoxymethyl)guanine; 500 μg, 125 μg, 31 μg, 8 μg or 2 μg of racemic 9-(2,3-dihydroxy-1-propoxymethyl)guanine; or placebo (physiological saline, pH 11.5). All compounds were solubilized in physiological saline, pH 11.5. The mice were observed daily for 15 days at the same time each day and the day of death was recorded for each animal.
(§3) The statistical analyses were carried out as described in Example 15.

[5] = tested on: Herpes simplex virus type 1 (HSV-1), strain Schooler; assay: Parenteral (subcutaneous) treatment of Herpes simplex virus type 1 infection in mice; assay type: in vivo, ICR/Ha mice; details: s.c.
Protocol: as §2, with “(ip)” for “(i.p.)”, “LD50.” for “LD50 s.”, “4” for “7”, “injected subcutaneously” for “treated by oral gavage”, “with:” for “with: 250 μg, 125 μg, 8 μg or 2 μg of (S)-9-(2,3-dihydroxy-1-propoxymethyl)guanine; 500 μg,”, “compounds A, B or C;” for “racemic 9-(2,3-dihydroxy-1-propoxymethyl)guanine;”
Statistical analyses [reference: Liddel, F.D.K., Evaluation of Survival in Challenge Experiments, Microbiol. Rev., 42, 237 (1978)]were performed on survival times transformed by the negative exponential transformation:
t=number of days an animal survived
T=duration of trial (15 days)
A continuity correction was used to account for daily observation:
Within each group, mice surviving through the trial period were assigned equally values of 0.9 and 1.0 to adjust for termination of the trial.
Average survival time per group was calculated from average corrected transformed survival times [fc (t)] as follows:
t avg=[T/log(0.1).[log(1-fc (t)]

[6] = tested on: Herpes simplex virus type 1 (HSV-1), strain Schooler; assay: as above; assay type: in vivo, ICR/Ha mice; details: tested not at the same time as A, B, C; for Percent Survival: at 15 days
[7] = tested on: Herpes simplex virus type 1 (HSV-1), strain Schooler; assay: Oral treatment of intraperitoneal HSV-1 infection of mice (Example 17); assay type: in vivo, ICR/Ha mice; details: for Percent Survival: at 15 days
Protocol: Twenty gram ICR/Ha mice were injected intraperitoneally (i.p.) with 0.5 ml of a 10^-5 dilution of a stock preparation of Herpes Simplex virus type 1 (HSV-1), strain Schooler. This virus challenge infected mice with approximately 50 to 100 LD50. Starting immediately after virus infection and continuing twice daily for 7 days, each animal was treated by oral gavage in groups of 10 with: 500 μg, 125 μg, 31 μg or 8 μg of (S)-9-(2,3-dihydroxy-1propoxymethyl)guanine; 500 μg, 125 μg, 31 μg or 8 μg of acyclovir or placebo (physiological saline, pH 11.5). All compounds were solubilized in physiological saline, pH 11.5.
as §3

[8] = 31 μg/dose twice daily for 7 days, 3.1 mg/kg/day, ^3 (all): not statistically different from placebo
[9] = 31 μg/dose twice daily for 7 days, 3.1 mg/kg/day, at 15 days (acyclovir not at the same time)
[10] = 125 μg/dose twice daily for 7 days, 12.5 mg/kg/day, ^3 (racemate, acyclovir): not statistically different from placebo
[11] = 125 μg/dose twice daily for 7 days, 12.5 mg/kg/day, at 15 days (acyclovir not at the same time)
[12] = 500 μg/dose twice daily for 7 days, 50 mg/kg/day (acyclovir not at the same time)
[13] = 500 μg/dose twice daily for 7 days, 50 mg/kg/day, at 15 days (acyclovir not at the same time)
[14] = 2 μg/dose twice daily for 4 days, 0.2 mg/kg/day, ^3 (all): not statistically different from placebo
[15] = 2 μg/dose twice daily for 4 days, 0.2 mg/kg/day, at 15 days
[16] = 8 μg/dose twice daily for 4 days, 0.8 mg/kg/day, ^3 (all): not statistically different from placebo
[17] = 8 μg/dose twice daily for 4 days, 0.8 mg/kg/day, at 15 days
[18] = 31 μg/dose twice daily for 4 days, 3.1 mg/kg/day, ^3 (all): not statistically different from placebo
[19] = 31 μg/dose twice daily for 4 days, 3.1 mg/kg/day, at 15 days
[20] = 125 μg/dose twice daily for 4 days, 12.5 mg/kg/day, ^3 (B, acyclovir): not statistically different from placebo
[21] = 125 μg/dose twice daily for 4 days, 12.5 mg/kg/day, at 15 days (acyclovir not at the same time)
[22] = 125 μg/dose twice daily for 7 days, 12.5 mg/kg/day
[23] = 500 μg/dose twice daily for 7 days, 50 mg/kg/day

Row | Compound | minimal effective concentration [1] [µg/mL] | minimal effective concentration [2] [µg/mL] | EC50 [3] [µg/mL] | Avg. Survival Time [4, 8] [days] | Percent Survival [4, 9] [%] | Avg. Survival Time [4, 10] [days] | Percent Survival [4, 11] [%] | Avg. Survival Time [4, 12] [days] | Percent Survival [4, 13] [%] | Avg. Survival Time [5, 14] [days] | Percent Survival [5, 15] [%] | Avg. Survival Time [5, 16] [days] | Percent Survival [5, 17] [%] | Avg. Survival Time [5, 18] [days] | Percent Survival [5, 19] [%] | Avg. Survival Time [5, 20] [days] | Percent Survival [5, 21] [%] | also measured
1 | Nc1nc2c(ncn2COCC(O)CO)c(=O)[nH]1 (racemic) [C, Racemic 9-(2,3-dihydroxy-1-propoxymethyl)guanine] | 6 to 12 | 3.1 to 6 | 1 (≈ 3.92 µM) | 7.6 | 0 | 8.4 | 10 | 10.7 | 20 | 6.7 | 10 | 6.6 | 0 | 7.2 | 0 | 8.6 | 20 | Avg. Survival Time ([4]; 2 μg/dose twice daily for 7 days, 0.2 mg/kg/day, ^3 (all): not statistically different from placebo): 6.9 days; Percent Survival ([4]; 2 μg/dose twice daily for 7 days, 0.2 mg/kg/day, at 15 days): 0%; Avg. Survival Time ([4]; 8 μg/dose twice daily for 7 days, 0.8 mg/kg/day, ^3 (all): not statistically different from placebo): 6.8 days; Percent Survival ([4]; 8 μg/dose twice daily for 7 days, 0.8 mg/kg/day, at 15 days): 0%; protection over placebo-treated animals, as measured by average survival time ([4]; 50 mg/kg/day): conferred significant protection over placebo-treated animals
2 | Nc1nc2c(ncn2COCCO)c(=O)[nH]1 [Acyclovir, 9-(2-hydroxyethoxymethyl)guanine] |  |  |  | 6.3 | 0 | 6.6 | 0 | 8.2 | 20 |  |  |  |  |  |  | 7.0 | 6 | Percent Survival ([4]; 1000 μg/dose, 100 mg/kg/day, at 15 days, tested not at the same time): 60%; Avg. Survival Time ([4]; 1000 μg/dose, 100 mg/kg/day, tested not at the same time): 11.4 days; Percent Survival ([6]; 500 μg/dose, 50 mg/kg/day): 0%; Avg. Survival Time ([6]; 500 μg/dose, 50 mg/kg/day): 7.8 days; Percent Survival ([6]; 1000 μg/dose, 100 mg/kg/day): 10%; Avg. Survival Time ([6]; 1000 μg/dose, 100 mg/kg/day): 7.8 days; Avg. Survival Time ([7]; 8 μg/dose twice daily for 7 days, 0.8 mg/kg/day, ^b (all): not statistically different from placebo): 6.1 days; Percent Survival ([7]; 8 μg/dose twice daily for 7 days, 0.8 mg/kg/day): 0%; Avg. Survival Time ([7]; 31 μg/dose twice daily for 7 days, 3.1 mg/kg/day, ^b (all): not statistically different from placebo): 6.5 days; Percent Survival ([7]; 31 μg/dose twice daily for 7 days, 3.1 mg/kg/day): 0%; Avg. Survival Time [7, 22]: 7.6 days; Percent Survival [7, 22]: 10%; Avg. Survival Time [7, 23]: 8.7 days; Percent Survival [7, 23]: 20%; protection over placebo-treated animals, as measured by average survival time ([7]; 12.5 mg/kg/day): conferred significant protection over placebo-treated animals; protection over placebo-treated animals, as measured by average survival time ([7]; 50 mg/kg/day): conferred significant protection over placebo-treated animals
3 | Nc1nc2c(ncn2COC[C@H](O)CO)c(=O)[nH]1 [B, (R)-9-(2,3-dihydroxy-1-propoxymethyl)guanine] | 25 to 50 | 25 | 6.2 (≈ 24.3 µM) |  |  |  |  |  |  | 6.0 | 0 | 6.3 | 0 | 6.5 | 10 | 7.5 | 10 | 
